Values quoted from earlier work as cited in the PKSmart pharmacokinetics tables (Seal et al. 2025).

Assay: Lombardo, Berellini, Obach 2018, Drug Metab Dispos 46:1466, doi 10.1124/dmd.118.082966
Conditions: human; for MRT / Vd / clearance / half-life: in vivo, iv; for fraction unbound: plasma

| Compound | MRT [h] | Vd [L/kg] | clearance [mL/min/kg] | half-life [h] | fraction unbound |
| --- | --- | --- | --- | --- | --- |
| CN(C)CCN1C(=O)c2cccc3cc([N+](=O)[O-])cc(c23)C1=O | 5.6 | 11.3 | 34.6 | 28.7 | – |
| CC(=O)O[C@H]1C[C@@H]2CC[C@@H]3[C@H](CC[C@@]4(C)[C@H]3C[C@H](N3CC[N+](C)(C)CC3)[C@@H]4OC(C)=O)[C@@]2(C)C[C@@H]1N1CC[N+](C)(C)CC1 | 1.9 | 0.35 | 3 | 1.9 | 0.98 |
| C[C@@H](NCCc1ccc(O)cc1)[C@@H](O)c1ccc(O)cc1 | 2.4 | 4.4 | 31 | 2.6 | 0.64 |
| CCCCCCCCCCCCCCC[C@@H](O)[C@H](C)N | 8.89 | 30.7 | 57.6 | 29.7 | – |
| CS(=O)(=O)c1ccc2c(c1)N(CCCN1CCC(C(N)=O)CC1)c1ccccc1S2 | – | – | 12.1 | 4 | – |
| CC(=O)O[C@H]1C[C@@]2(C)[C@@H](C[C@@H](O)[C@H]3[C@]4(C)CC[C@@H](O)[C@@H](C)[C@@H]4CC[C@]32C)/C1=C(/CCC=C(C)C)C(=O)O | 10.6 | 0.23 | 0.35 | 9.8 | 0.02 |
| COc1ccc(OC)c([C@H](O)CNC(=O)CN)c1 | 0.4 | 0.67 | 27.9 | 0.6 | 0.7 |
| C[C@H](Cc1cc2c(c(C(N)=O)c1)N(CCCO)CC2)NCCOc1ccccc1OCC(F)(F)F | – | – | 2.8 | 3.6 | 0.05 |
| Cc1onc(-c2ccccc2)c1-c1ccc(S(N)(=O)=O)cc1 | 9.4 | 0.75 | 1.4 | 7.4 | 0.02 |
| O=C1c2cccc3c2[C@H](CCC3)CN1[C@@H]1CN2CCC1CC2 | 40 | 6.3 | 2.6 | 39 | 0.38 |
| Cc1cn[nH]c1 | 7.94 | 0.35 | 0.73 | 4.42 | – |
| C[C@@]1(Cn2ccnn2)C(C(=O)O)N2C(=O)C[C@H]2S1(=O)=O (some centres not stated) | 0.89 | 0.26 | 4.81 | 0.97 | 0.7 |
| CS(=O)(=O)OCCN(CCBr)c1c(C(=O)NCCOP(=O)(O)O)cc([N+](=O)[O-])cc1[N+](=O)[O-] | 0.32 | 0.86 | 44.8 | 0.1 | – |
| C#C[C@]1(O)CC[C@H]2[C@@H]3CCC4=Cc5oncc5C[C@]4(C)[C@H]3CC[C@@]21C | 5.49 | 5.18 | 15.7 | 2.31 | – |
| CN(C)CCN1C(=O)c2cccc3cc(N)cc(c23)C1=O | 6.34 | 7.33 | 19.3 | 4.78 | – |
| CCCCNC(=N)NC(=N)N | 4.66 | 1.84 | 6.58 | 4.62 | – |
| Nc1ccn([C@@H]2O[C@H](CO)C[C@@H]2F)c(=O)n1 | 1.9 | 0.7 | 6.1 | 1.8 | 1 |
| O=C(Cn1cnnn1)NC1C(=O)N2C(C(=O)O)=C(CSc3nncs3)CS[C@H]12 (some centres not stated) | – | – | 5.37 | 0.64 | – |
| COc1cc(OC)c(/C=C/S(=O)(=O)Cc2ccc(OC)c(NCC(=O)O)c2)c(OC)c1 | 1.2 | 0.11 | 1.51 | 0.95 | – |
| CN(C)C/C=C(\c1ccc(Br)cc1)c1cccnc1 | 8.22 | 6.8 | 13.8 | 6.26 | 0.086 |
| N#Cc1ccc(Cn2cncc2CN2CCN(c3cccc(Cl)c3)C(=O)C2)cc1 | 4.2 | 0.8 | 3.2 | 2.6 | – |
| O[C@@H]1[C@@H](O)[C@@H](O)OC[C@H]1O | 1.9 | 0.23 | 2.38 | 1.2 | – |
| CCC(C)(C)NCC(O)COc1ccccc1C(=O)CCc1ccccc1 (configuration not stated) | 1.9 | 1.2 | 11 | 1.5 | 0.017 |
| CN1[C@@H]2CCC[C@H]1C[C@@H](NC(=O)c1nn(C)c3ccccc13)C2 | 6.7 | 3.7 | 9.1 | 5.2 | – |
| CC1=C(C(=O)O)N2C(=O)C(NC(=O)C(N)c3ccc(O)cc3)[C@H]2SC1 (some centres not stated) | 1.5 | 0.23 | 2.5 | 1.1 | – |

| Compound | MRT [h] | Vd [L/kg] | clearance [mL/min/kg] | half-life [h] | fraction unbound |
| --- | --- | --- | --- | --- | --- |
| Cc1onc(-c2c(F)cccc2Cl)c1C(=O)NC1C(=O)N2C(C(=O)O)C(C)(C)S[C@H]12 (some centres not stated) | 1.3 | 0.19 | 2.4 | 1.4 | 0.043 |
| NC(CCC(=O)NC(CS(=O)(=O)CCOP(=O)(N(CCCl)CCCl)N(CCCl)CCCl)C(=O)NC(C(=O)O)c1ccccc1)C(=O)O (configuration not stated) | 0.27 | 0.46 | 28.5 | 0.28 | – |
| COc1ccccc1OCCNCC(O)COc1cccc2[nH]c3ccccc3c12 (configuration not stated) | 2.8 | 1.3 | 7.8 | 2.4 | – |
| NCCCC(O)(P(=O)(O)O)P(=O)(O)O | 2.1 | – | – | – | – |
| Cc1cccc([C@H](C)c2c[nH]cn2)c1C | 2.5 | 1.6 | 11 | 2.2 | 0.06 |
| Cc1cccc(N2CC(CO)OC2=O)c1 (configuration not stated) | 2.3 | 1.5 | 11 | 1.6 | 0.49 |
| NCC(=O)CCC(=O)O | 1.06 | 0.12 | 1.88 | 0.83 | 0.88 |
| CS(=O)(=O)OC[C@H](O)[C@@H](O)COS(C)(=O)=O | 2 | 0.59 | 4.9 | 1.83 | – |
| O=C1CCC[C@@H]2[C@H]3CCC[N@+]4(O)CCC[C@@H](CN12)[C@@H]34 | 1.33 | 0.61 | 7.66 | 1.69 | – |
| CCOc1nc2cccc(C(=O)O)c2n1Cc1ccc(-c2ccccc2-c2nnn[nH]2)cc1 | 5.9 | 0.13 | 0.37 | 9.7 | 0.002 |
| Cc1c(F)cc(C(=O)NC2CC2)cc1-c1ccc(C(=O)NCC(C)(C)C)cn1 | 7.38 | 1.67 | – | 6.95 | – |
| CCCCCc1cc(O)c2c(c1)OC(C)(C)[C@@H]1CCC(C)=C[C@@H]21 | 46 | 8.9 | 3.2 | 33 | 0.05 |
| C#C[C@@]1(O)[C@@H](CO)O[C@H](n2ccc(N)nc2=O)[C@@H]1O | 11.7 | 1.1 | 1.6 | 10.9 | – |
| Cc1ccc(S(=O)(=O)NC(=O)NN2C[C@H]3CCC[C@@H]3C2)cc1 | 17.5 | 0.43 | 0.41 | 16.4 | 0.03 |
| COC(=O)C1=C(C)NC(C)=C(C(=O)OC(C)C)C1c1cccc2nonc12 (configuration not stated) | 1 | 1.5 | 26 | 3.3 | 0.04 |
| CCC1C(=O)N(C)c2cnc(Nc3ccc(C(=O)NC4CCN(C)CC4)cc3OC)nc2N1C1CCCC1 (configuration not stated) | 31.3 | 31.2 | 17.1 | 40.1 | – |
| CC[C@H]1OC(=O)C[C@@H](O)[C@H](C)[C@@H](O[C@@H]2O[C@H](C)C[C@H](N(C)C)[C@@H]2O)[C@@H](CC=O)CC(C)C(=O)C=C[C@]2(C)O[C@H]2[C@@H]1C (some centres not stated) | 3.54 | 2.83 | 13.3 | 3.34 | – |
| O=c1ccc2ccc(OCCCCN3CCN(c4cccc5sccc45)CC3)cc2[nH]1 | 71 | 1.46 | 0.34 | 54.4 | 0.002 |
| C/C(=C\c1csc(C)n1)[C@@H]1C[C@@H]2O[C@]2(C)CCC[C@H](C)[C@H](O)C(C)C(=O)C(C)(C)[C@@H](O)CC(=O)O1 (some centres not stated) | 111 | 14.4 | 2.17 | 92.3 | 0.22 |
| COc1cc(C2c3cc4c(cc3C(OC3OC5COC(C)OC5C(O)C3N(C)C)C3COC(=O)C23)OCO4)cc(OC)c1O (configuration not stated) | 17 | 0.3 | 0.4 | 14 | 0.013 |
| C=C(CC)C(=O)c1ccc(OCC(=O)O)c(Cl)c1Cl | 0.5 | 0.26 | 8.7 | 0.5 | – |
| Cc1ccc(O)c([C@H](CCN(C(C)C)C(C)C)c2ccccc2)c1 | 3 | 1.5 | 8.4 | 2.4 | – |
| CN1CCOC(c2ccccc2)c2ccccc2C1 (configuration not stated) | 8.1 | 5.6 | 12 | 5 | – |
| CSCCNc1nc(SCCC(F)(F)F)nc2c1ncn2[C@@H]1O[C@H](CO[P@](=O)(O)O[P@](=O)(O)C(Cl)(Cl)P(=O)(O)O)[C@@H](O)[C@H]1O | 0.07 | 0.035 | 9.06 | 0.14 | 0.02 |
| CCC(=O)O[C@]1(C(=O)SCF)[C@H](C)C[C@H]2[C@@H]3C[C@H](F)C4=CC(=O)C=C[C@]4(C)[C@@]3(F)[C@@H](O)C[C@@]21C | 3.9 | 3.6 | 17 | 6 | 0.1 |

| Compound | MRT [h] | Vd [L/kg] | clearance [mL/min/kg] | half-life [h] | fraction unbound |
| --- | --- | --- | --- | --- | --- |
| CN(C)CCCN1c2ccccc2CCc2cc(O)ccc21 | 12 | 6.6 | 9.2 | 10 | 0.36 |
| C[N+](C)(C)C[C@H](O)CC(=O)[O-] | 4.2 | 0.4 | 1.6 | 5 | 1 |
| CNS(=O)(=O)CCc1ccc2[nH]cc(C3CCN(C)CC3)c2c1 | 6.1 | 2.4 | 6.6 | 6.6 | – |
| NCCCCC(NC(=O)C(Cc1cc(Br)c(O)c(Br)c1)NC(=O)N1CCC(N2Cc3ccccc3NC2=O)CC1)C(=O)N1CCN(c2ccncc2)CC1 (configuration not stated) | 1.9 | 0.31 | 2.6 | 2.5 | – |
| CC(C)[N@+]1(C)[C@H]2CC[C@H]1C[C@H](OC(=O)C(c1ccccc1)C1CCCC1)C2 (some centres not stated) | 2.48 | 1.25 | 8.41 | 3.3 | – |
| CCCNC(C)C(=O)Nc1c(C)csc1C(=O)OC (configuration not stated) | 1.04 | 7.7 | 127 | 0.98 | 0.46 |
| N#Cc1ccc2[nH]cc(CCCCN3CCN(c4ccc5oc(C(N)=O)cc5c4)CC3)c2c1 | 21.5 | 4.85 | 3.76 | 15.7 | 0.03 |
| CCC(=O)NCC[C@@H]1CCc2ccc3c(c21)CCO3 | 1.3 | 1.05 | 13.1 | 1.9 | 0.2 |
| COc1ccc(C(=O)Nc2ccccc2CCC2CCCCN2C)cc1 (configuration not stated) | 2.8 | 2.2 | 13 | 2.6 | – |
| COc1ccsc1CNCC[C@@]1(c2ccccn2)CCOC2(CCCC2)C1 | 1.9 | 0.78 | 6.89 | 1.8 | – |
| CCCC=c1ncc(=CC(Cc2cccs2)C(=O)O)n1Cc1ccc(C(=O)O)cc1 (configuration not stated) | 1.5 | 0.17 | 1.9 | 2.1 | – |
| COC(=O)CC[C@@H]1N=C(c2ccccn2)c2cc(Br)ccc2-n2c(C)cnc21 | 0.5 | 0.44 | 15 | 0.75 | – |
| Clc1ccc(COC(Cn2ccnc2)c2ccc(Cl)cc2Cl)c(Cl)c1 (configuration not stated) | 12.6 | 7.14 | 9.48 | 19.8 | 0.08 |
| C=CCC1(C(C)C#CCC)C(=O)NC(=O)N(C)C1=O (configuration not stated) | 1.5 | 1.1 | 12 | 1.6 | 0.27 |
| C=CCN(C1=NCCN1)c1c(Cl)cccc1Cl | 3.77 | 2.72 | 12 | 3.14 | 0.4 |
| Cc1ccccc1OCC(O)CNCCOc1ccc(C(N)=O)cc1 (configuration not stated) | 4.8 | 4 | 14 | 2.5 | 0.089 |
| CCN(CC)Cc1cc(Nc2ccnc3cc(Cl)ccc23)ccc1O | 1.34 | 17.4 | 217 | 2.1 | – |
| NC(=O)c1cccc(N)c1 | 4 | 1.9 | 7.9 | 5 | – |
| N=C(N)c1ccc(OCCCCCOc2ccc(C(=N)N)cc2)cc1 | 12 | 53 | 74 | 25 | 0.09 |
| C=C(Br)C(=O)Nc1cc(C(=O)Nc2cc(C(=O)Nc3cc(C(=O)Nc4cc(C(=O)NCCN=C(N)N)n(C)c4)n(C)c3)n(C)c2)n(C)c1 | 1.2 | 0.36 | 5.15 | 8.3 | – |
| Oc1cccc(-c2c3nc(c(-c4cccc(O)c4)c4ccc([nH]4)c(-c4cccc(O)c4)c4ccc([nH]4)c(-c4cccc(O)c4)c4nc2CC4)C=C3)c1 | – | – | 0.06 | 91.5 | 0.14 |
| CN[C@@H]1[C@H](O)[C@H](NC)[C@H]2O[C@@]3(O)C(=O)C[C@@H](C)O[C@H]3O[C@@H]2[C@H]1O | 2.2 | 0.13 | 0.99 | 1.8 | – |
| Nc1nc2[nH]cc(CCc3ccc(C(=O)NC(CCC(=O)O)C(=O)O)cc3)c2c(=O)[nH]1 (configuration not stated) | 1.92 | 0.15 | 1.3 | 1.85 | – |
| c1ccc(CN(CC2=NCCN2)c2ccccc2)cc1 | 3.45 | 3.9 | 19.7 | 2.29 | – |
| Cc1c(F)c(N2CCN[C@H](C)C2)cc2c1c(=O)c(C(=O)O)cn2C1CC1 | – | – | 5.9 | 9.2 | 0.82 |
